# According to US10940139B2, “Compounds that interact with the Ras superfamily for the treatment of cancers, inflammatory diseases, rasopathies, and fibrotic disease” (Shy Therapeutics LLC, priority 2017, dated 2021):
# Tested on: MIA-PACA2 pancreatic cancer cell lines
# Assay: Cell proliferation assay, alternate assay conditions (DAPI fluorescence)
# Type: cell-based
# Details: Homo sapiens, MIA PaCa-2; for inhibition at 10 µM: * = tested at 10 μM, alternate conditions, MIA-PACA2; for IC50: MIA-PACA2, same assay as the % inhibition (alternate conditions)
# Experimental: Cell lines: Tumor-derived pancreatic cancer cell lines MIA-PACA2 were purchased from ATCC and grown in complete DMEM-High Glucose medium supplemented with penicillin (100 U/mL), streptomycin (100 μg/mL), and 10% heat-inactivated FBS at 37° C. in a humidified incubator with 5% CO2.
# Method: Cells are plated at 4000 cells/well density in 96-wells plate. The next day tested small molecules are added to the cells in the final concentration of 10 μM in the presence of 0.3% DMSO and 10% FBS. After small molecules addition, cells are incubated for 4 days at 37° C. in a humidified incubator with 5% CO2. For IC50 value determination, serial dilutions of compounds were added to cells under the same conditions.
# Assay: At the end of the incubation period, cell cultures are fixed with a 50-50 mixture (v/v) acetone-methanol for 10 minutes at −20° C., followed by rehydration in PBS for 10 minutes at room temperature. After rehydration, cells are stained with DAPI (1 μg/ml) in PBS for 10 minutes at room temperature, followed by 3 washes with PBS. After staining, DAPI fluorescence is recorded (358 nm excitation/461 nm emission) with the 96-well plate reader Molecular Devices Spectramax M3; degree of small mole-cule-dependent proliferation inhibition is calculated from raw data assuming No Serum cells value as 100%.
IC50 [nM],SMILES,inhibition at 10 µM [%]
,OCC1(c2ccc(-c3nc(-c4ccccn4)nc(O)c3Oc3ccccc3)cc2)CC1 [drawing 1836],76 to 100
,Cn1ccnc1-c1nc(O)c2c(-c3ccccc3)c(-c3ccccc3)sc2n1 [drawing 1838],76 to 100
,Cn1cnc(-c2nc(O)c3c(-c4ccccc4)c(-c4ccc(CNC(=O)OC(C)(C)C)cc4)sc3n2)c1 [drawing 1839],25 to 50
,COCCNc1nc(-c2ccccn2)nc2c1c(-c1ccccc1)nn2-c1ccccn1 [drawing 1840],76 to 100
,Oc1nc(-c2ccccn2)nc2c1c(-c1ccccc1)nn2-c1ccccn1 [drawing 1841],76 to 100
,COc1nc(-c2ccccn2)nc2c1c(-c1ccccc1)nn2-c1ccccn1 [drawing 1842],76 to 100
,Nc1nc(O)c2sc(-c3cccc(C(=O)NC4CCNC4=O)c3)cc2n1 (centres unmarked) [drawing 1844],0
,Nc1nc(O)c2sc(-c3cccc(C(=O)N4CCC(O)C4)c3)cc2n1 (centres unmarked) [drawing 1845],1 to 25
,NC(=O)C1CCCN1C(=O)c1cccc(-c2cc3nc(N)nc(O)c3s2)c1 (centres unmarked) [drawing 1846],51 to 75
,Nc1nc(O)c2sc(-c3cccc(C(=O)NCc4ncc[nH]4)c3)cc2n1 [drawing 1847],1 to 25
,Nc1nc(O)c2sc(-c3cccc(C(=O)NCc4cccc(O)n4)c3)cc2n1 [drawing 1848],1 to 25
,COC(=O)c1nc(-c2ccccn2)nc(O)c1O [drawing 1849],25 to 50
,Oc1nc(-c2ccccn2)nc2c(-c3ccccc3)c(-c3ccncc3)sc12 [drawing 1850],76 to 100
,Cn1cnc(-c2nc(O)c3sc(-c4ccncc4)c(-c4ccccc4)c3n2)c1 [drawing 1851],76 to 100
,COCC(C)Nc1nc(-c2ccccn2)nc(C(=O)NCCCc2c[nH]cn2)c1Oc1ccccc1 (centres unmarked) [drawing 1852],76 to 100
,Nc1nc(-c2ccccn2)nc(C(=O)NCCc2ccncc2)c1Oc1ccccc1 [drawing 1853],76 to 100
,COc1nc(-c2ccccn2)nc(Oc2cccc(C(F)(F)F)c2)c1OC [drawing 1854],76 to 100
,Oc1nc(-c2ccccn2)nc2c(Br)c(-c3ccccc3)sc12 [drawing 1855],76 to 100
,CC(C)(C)c1sc2c(O)nc(-c3ccccn3)nc2c1Br [drawing 1856],76 to 100
,Cc1ccc(-c2cc3nc(-c4ccccn4)nc(O)c3s2)cc1 [drawing 1857],76 to 100
,Oc1nc(-c2ccccn2)nc2cc(-c3ccccc3Cl)sc12 [drawing 1858],76 to 100
,COc1c(O)nc(-c2ccccn2)nc1Oc1cccc(C(F)(F)F)c1 [drawing 1859],76 to 100
,Oc1nc(-c2ccccn2)nc(Oc2cccc(C(F)(F)F)c2)c1O [drawing 1860],76 to 100

IC50 [nM],SMILES,inhibition at 10 µM [%]
,Oc1nc(-c2ccccn2)nc2cc(-c3ccc(-c4ccccc4)cc3)sc12 [drawing 1861],76 to 100
,Cc1ccc(-c2csc3c(O)nc(-c4ccccn4)nc23)cc1 [drawing 1862],76 to 100
,Oc1nc(-c2ccccn2)nc2cc(-c3ccncc3)sc12 [drawing 1863],76 to 100
,Oc1nc(-c2ccccn2)nc2cc(-c3ccccc3)sc12 [drawing 1864],76 to 100
,COc1ccc(-c2cc3nc(-c4ccccn4)nc(O)c3s2)cc1 [drawing 1865],76 to 100
,Oc1nc(-c2ccccn2)nc2cc(-c3cccc(Br)c3)sc12 [drawing 1866],76 to 100
,COc1nc(-c2ccccn2)nc(Oc2cccc(C(F)(F)F)c2)c1O [drawing 1867],1 to 25
> 1000,COCCN(C)c1nc(-c2nccn2C)nc2sc(-c3ccccc3)c(-c3ccccc3)c12 [drawing 1868],76 to 100
,CC(C)OCCNc1nc(-c2nccn2C)nc2sc(-c3ccccc3)c(-c3ccccc3)c12 [drawing 1869],76 to 100
,Cn1ccnc1-c1nc(NCCOC(F)(F)F)c2c(-c3ccccc3)c(-c3ccccc3)sc2n1 [drawing 1870],76 to 100
,CC(O)CNc1nc(-c2nccn2C)nc2sc(-c3ccccc3)c(-c3ccccc3)c12 (centres unmarked) [drawing 1871],76 to 100
501 to 1000,COCCCNc1nc(-c2nccn2C)nc2sc(-c3ccccc3)c(-c3ccccc3)c12 [drawing 1872],76 to 100
501 to 1000,COC1CCN(c2nc(-c3nccn3C)nc3sc(-c4ccccc4)c(-c4ccccc4)c23)C1 (centres unmarked) [drawing 1873],76 to 100
,CCOCCOc1nc(-c2nccn2C)nc2sc(-c3ccccc3)c(-c3ccccc3)c12 [drawing 1874],76 to 100
,CCN(CC)CCOc1nc(-c2nccn2C)nc2sc(-c3ccccc3)c(-c3ccccc3)c12 [drawing 1875],76 to 100
,COCCNc1nc(-c2ccncn2)nc2sc(-c3ccccc3)c(-c3ccccc3)c12 [drawing 1876],51 to 75
501 to 1000,CCOCCNc1nc(-c2nccn2C)nc2sc(-c3ccccc3)c(-c3ccccc3)c12 [drawing 1877],76 to 100
,Cn1ccnc1-c1nc(NCCOC2CC2)c2c(-c3ccccc3)c(-c3ccccc3)sc2n1 [drawing 1878],76 to 100
501 to 1000,COCC(C)Nc1nc(-c2nccn2C)nc2sc(-c3ccccc3)c(-c3ccccc3)c12 (centres unmarked) [drawing 1879],76 to 100
,CC(CO)Nc1nc(-c2nccn2C)nc2sc(-c3ccccc3)c(-c3ccccc3)c12 (centres unmarked) [drawing 1880],76 to 100
,Cn1ccnc1-c1nc(NCCCO)c2c(-c3ccccc3)c(-c3ccccc3)sc2n1 [drawing 1881],76 to 100
> 1000,COCCNc1nc(-c2nccn2C)nc2sc(-c3ccccc3)c(-c3ccccc3Cl)c12 [drawing 1882],76 to 100
501 to 1000,COCCNc1nc(-c2nccn2C)nc2sc(-c3ccccc3Cl)c(-c3ccccc3)c12 [drawing 1883],76 to 100

IC50 [nM],SMILES,inhibition at 10 µM [%]
,COCCNc1nc(-c2nccn2C)nc2sc(-c3ccncc3)c(-c3ccccc3)c12 [drawing 1884],76 to 100
> 1000,COCCNc1nc(-c2cn(C)cn2)nc2sc(-c3ccccc3)c(-c3ccccc3)c12 [drawing 1885],76 to 100
501 to 1000,COCCNc1nc(-c2nccn2C)nc2sc(C)c(-c3ccccc3)c12 [drawing 1886],76 to 100
,COCCNc1nc(-c2cn(C)cn2)nc2sc(C)c(-c3ccccc3)c12 [drawing 1887],76 to 100
,COCCNc1nc(-c2nccn2C)nc2sc(-c3cccc(OC)c3)c(-c3ccccc3)c12 [drawing 1888],76 to 100
100 to 500,CC(C)COc1ccc(-c2c(-c3ccccc3)sc3c(O)nc(-c4nccn4C)nc23)cn1 [drawing 1889],76 to 100
,Cn1ccnc1-c1nc(O)c2sc(-c3ccccc3)c(-c3ccccc3)c2n1 [drawing 1890],51 to 75
501 to 1000,COCCNc1nc(-c2nccn2C)nc2sc(-c3ccccc3)c(-c3ccc(OC)cc3)c12 [drawing 1891],76 to 100
,COCCNc1nc(-c2nccn2C)nc2sc(C3CCOCC3)c(-c3ccccc3)c12 [drawing 1892],76 to 100
,COCCNc1nc(-c2cccc(N)n2)nc2sc(-c3ccccc3)c(-c3ccccc3)c12 [drawing 1893],76 to 100
,Cn1ccnc1-c1nc(O)c2sc(-c3ccccc3)c(-c3cccc(C(F)(F)F)c3)c2n1 [drawing 1894],25 to 50
501 to 1000,COc1ccc(-c2c(-c3ccccc3)sc3c(O)nc(-c4nccn4C)nc23)cn1 [drawing 1895],76 to 100
,Cc1sc2c(O)nc(-c3nccn3C)nc2c1-c1ccccc1 [drawing 1896],76 to 100
100 to 500,Cn1ccnc1-c1nc(O)c2sc(-c3ccccc3)c(-c3ccccc3Cl)c2n1 [drawing 1897],76 to 100
,COCCNc1nc(-c2nccn2C)nc2sc(-c3ccccc3)c(-c3ccncc3)c12 [drawing 1898],76 to 100
100 to 500,COCCNc1nc(-c2nccn2C)nc2sc(-c3ccc(OC)cc3)c(-c3ccccc3)c12 [drawing 1899],76 to 100
> 1000,Cn1ccnc1-c1nc(O)c2scc(-c3cccc(C(F)(F)F)c3)c2n1 [drawing 1900],76 to 100
100 to 500,Cc1sc2c(O)nc(-c3nccn3C)nc2c1-c1cccc(C(F)(F)F)c1 [drawing 1901],76 to 100
,Cc1sc2c(O)nc(-c3nccn3C)nc2c1-c1ccc(OCC(C)C)nc1 [drawing 1902],76 to 100
,COc1ccc(-c2c(C)sc3c(O)nc(-c4nccn4C)nc23)cn1 [drawing 1903],25 to 50
100 to 500,Cc1sc2c(O)nc(-c3nccn3C)nc2c1-c1ccccc1Cl [drawing 1904],76 to 100
100 to 500,Cn1ccnc1-c1nc(O)c2scc(-c3cccc(OC(F)(F)F)c3)c2n1 [drawing 1905],76 to 100
,Cn1cnc(-c2nc(O)c3scc(-c4cccc(C(F)(F)F)c4)c3n2)c1 [drawing 1906],76 to 100

SMILES,IC50 [nM],inhibition at 10 µM [%]
COCCNc1nc(-c2nccn2C)nc2sc(-c3ccccc3)c(-c3ccccc3)c12 [drawing 1837],501 to 1000,76 to 100
